Measured values published in US20060041123A1, “Antibacterial agents” (priority 2002, published 2006).
Read-outs that look alike come from different tables or passages of the source.

Experiment: Antimicrobial activity assay: whole-cell MIC by broth microdilution (NCCLS M7-A6)
Assay type: cell-based
Procedure: Whole-cell antimicrobial activity was determined by broth microdilution using the National Committee for Clinical Laboratory Standards (NCCLS) recommended procedure, Document M7-A6, “Methods for Dilution Susceptibility Tests for Bacteria that Grow Aerobically”. The compounds were tested in serial two-fold dilutions ranging from 0.016 to 16 mcg/mL. Compounds were evaluated against a panel of Gram-positive organisms, including Staphylococcus aureus WCUH29, Streptococcus pneumoniae 1629, Streptococcus pyogenes CN 10, and Enterococcus faecalis 2. In addition, compounds were evaluated against a panel of Gram-negative strains including Haemophilus influenzae NEMC1, E. coli 7623, and Moraxella catarrhalis Ravasio. The minimum inhibitory concentration (MIC) was determined as the lowest concentration of compound that inhibited visible growth. A mirror reader was used to assist in determining the MIC endpoint.
Compounds of the present invention have MIC's ≦20 μg/ml versus all the organisms named above.

[1] = versus all the organisms named above (S. aureus WCUH29, S. pneumoniae 1629, S. pyogenes CN 10, E. faecalis 2, H. influenzae NEMC1, E. coli 7623, M. catarrhalis Ravasio), read-out: MIC

SMILES	MIC [1]	MIC
COc1ccc2ncc(F)c(CCN3CCC(NCc4cc5c(cn4)SCCN5)CC3)c2n1.Cl.Cl [Example 54, N-(2,3-Dihydro-1H-pyrido[3,4-b][1,4]thiazin-7-ylmethyl)-1-{2-[3-fluoro-6-(methoxy)-1,5-naphthyridin-4-yl]ethyl}-4-piperidinamine dihydrochloride]	≤ 2 µg/mL	
COc1ccc2ncc(F)c(CCN3CCC(NCc4ccc5c(n4)NC(=O)CO5)CC3)c2n1.Cl.Cl [Example 55, 6-{[(1-{2-[3-fluoro-6-(methoxy)-1,5-naphthyridin-4-yl]ethyl}-4-piperidinyl)amino]methyl}-2H-pyrido[3,2-b][1,4]oxazin-3(4H)-one dihydrochloride]	≤ 2 µg/mL	
COc1ccc2ncc(F)c(CCN3CCC(NCc4cnc5c(c4)NC(=O)CS5)CC3)c2n1.Cl.Cl [Example 56, 7-{[(1-(2-[3-fluoro-6-(methoxy)-1,5-naphthyridin-4-yl]ethyl}-4-piperidinyl)amino]methyl}-1H-pyrido[2,3-b][1,4]thiazin-2(3H)-one dihydrochloride]	≤ 2 µg/mL	
COc1ccc2ncc(F)c(CCN3CCC(NCc4cc5c(nn4)SCC(=O)N5)CC3)c2n1.Cl.Cl [Example 58, 3-{[(1-{2-[3-fluoro-6-(methoxy)-1,5-naphthyridin-4-yl]ethyl}-4-piperidinyl)amino]methyl}-5H-pyridazino[3,4-b][1,4]thiazin-6(7H)-one dihydrochloride]	≤ 2 µg/mL	
COc1ccc2ncc(F)c(CCN3CCC(NCc4ccc5c(n4)NC(=O)CS5)CC3)c2n1.Cl.Cl [Example 59, 6-{[(1-{2-[3-Fluoro-6-(methoxy)-1,5-naphthyridin-4-yl]ethyl}-4-piperidinyl)amino]methyl}-2H-pyrido[3,2-b][1,4]thiazin-3(4H)-one dihydrochloride]	≤ 2 µg/mL	
COc1ccc2ncc(F)c(CCN3CCC(NCc4cc5c(cn4)OCCS5)CC3)c2n1.Cl.Cl [Example 60, N-(2,3-Dihydro[1,4]oxathiino[2,3-c]pyridin-7-ylmethyl)-1-{2-[3-fluoro-6-(methoxy)-1,5-naphthyridin-4-yl]ethyl}-4-piperidinamine dihydrochloride]	≤ 2 µg/mL	
COc1ccc2ncc(F)c(CCN3CCC(NCc4cc5c(cn4)OCS5)CC3)c2n1.Cl.Cl [Example 61, 1-{2-[3-Fluoro-6-(methoxy)-1,5-naphthyridin-4-yl]ethyl}-N-([1,3]oxathiolo[5,4-c]pyridin-6-ylmethyl)-4-piperidinamine dihydrochloride]	≤ 2 µg/mL	
COc1ccc2ncc(F)c(CCN3CCC(NC(=O)c4nc5c(cc4F)SCC(=O)N5)CC3)c2n1.Cl.Cl [Example 62, 7-Fluoro-N-(1-{2-[3-fluoro-6-(methoxy)-1,5-naphthyridin-4-yl]ethyl}-4-piperidinyl)-3-oxo-3,4-dihydro-2H-pyrido[3,2-b][1,4]thiazine-6-carboxamide dihydrochloride]	≤ 2 µg/mL	
COc1ccc2ncc(F)c(CCN3CC[C@H](NCc4ccc5c(n4)NC(=O)CO5)[C@H](O)C3)c2n1.Cl.Cl [Example 68, 6-{[((3R,4S)-1-{2-[3-fluoro-6-(methoxy)-1,5-naphthyridin-4-yl]ethyl}-3-hydroxy-4-piperidinyl)amino]methyl}-2H-pyrido[3,2-b][1,4]oxazin-3(4H)-one dihydrochloride]		≤ 2 µg/mL
COc1cc(F)c2ncc(F)c(CCN3CC[C@H](NCc4ccc5c(n4)NC(=O)CO5)[C@H](O)C3)c2c1.Cl.Cl [Example 75, 6-{[((3R,4S)-1-{2-[3,8-difluoro-6-(methoxy)-4-quinolinyl]ethyl}-3-hydroxy-4-piperidinyl)amino]methyl}-2H-pyrido[3,2-b][1,4]oxazin-3(4H)-one dihydrochloride]	≤ 2 µg/mL	
COc1ccc2ncc(F)c(CCN3CCC(NCC4=CC=C5CCCN=C5N4)CC3)c2c1.Cl.Cl [Example 77, 1-{2-[3-fluoro-6-(methoxy)-4-quinolinyl]ethyl}-N-(1,5,6,7-tetrahydro-1,8-naphthyridin-2-ylmethyl)-4-piperidinamine dihydrochloride]	≤ 2 µg/mL	
COc1ccc2ncc(F)c(CCN3CCC(NCc4ccc5nsnc5c4)CC3)c2c1.Cl.Cl [Example 79, N-(2,1,3-benzothiadiazol-5-ylmethyl)-1-{2-[3-fluoro-6-(methoxy)-4-quinolinyl]ethyl}-4-piperidinamine dihydrochloride]		≤ 2 µg/mL
COc1ccc2ncc(F)c(CCN3CCC(NCc4ccc5c(n4)NCCS5)CC3)c2c1.Cl.Cl [Example 81, N-(3,4-dihydro-2H-pyrido[3,2-b][1,4]thiazin-6-ylmethyl)-1-{2-[3-fluoro-6-(methoxy)-4-quinolinyl]ethyl}-4-piperidinamine dihydrochloride]		≤ 2 µg/mL
COc1ccc2ncc(F)c(CCN3CCC(NCc4cnc5c(c4)NC(=O)CS5)CC3)c2c1.Cl.Cl [Example 84, 7-{[(1-{2-[3-fluoro-6-(methoxy)-4-quinolinyl]ethyl}-4-piperidinyl)amino]methyl}1H-pyrido[2,3-b][1,4]thiazin-2(3H)-one dihydrochloride]	≤ 2 µg/mL	
COc1ccc2ncc(F)c(CCN3CCC(NCc4cnc5c(c4)OCCO5)CC3)c2c1.Cl.Cl [Example 85, N-(2,3-dihydro[1,4]dioxino[2,3-b]pyridin-7-ylmethyl)-1-(2-[3-fluoro-6-(methoxy)-4-quinolinyl]ethyl}-4-piperidinamine dihydrochloride]	≤ 2 µg/mL	
COc1ccc2ncc(F)c(CCN3CCC(NCc4cc5c(cn4)OCCS5)CC3)c2c1.Cl.Cl [Example 86, N-(2,3-dihydro[1,4]oxathiino[2,3-c]pyridin-7-ylmethyl)-1-{2-[3-fluoro-6-(methoxy)-4-quinolinyl]ethyl}-4-piperidinamine dihydrochloride]	≤ 2 µg/mL	
COc1ccc2ncc(Cl)c(CCN3CCC(NCc4cc5c(cn4)OCCO5)(C(N)=O)CC3)c2n1.Cl.Cl [Example 91, 1-{2-[3-chloro-6-(methoxy)-1,5-naphthyridin-4-yl]ethyl}-4-[(2,3-dihydro[1,4]dioxino[2,3-c]pyridin-7-ylmethyl)amino]-4-piperidinecarboxamide dihydrochloride]	≤ 2 µg/mL	
COc1ccc2ncc(F)c(CCN3CCC(CO)(NCc4cc5c(cn4)OCCO5)CC3)c2c1.Cl.Cl [Example 92, (4[(2,3-dihydro[1,4]dioxino[2,3-c]pyridin-7-ylmethyl)amino]-1-{2-[3-fluoro-6-(methoxy)-4-quinolinyl]ethyl}-4-piperidinyl)methanol dihydrochloride]	≤ 2 µg/mL	
COc1ccc2ncc(F)c(CCN3CCC(CO)(NC(=O)c4ccc5c(n4)NC(=O)CS5)CC3)c2n1.Cl [Example 93, N-[1-{2-[3-fluoro-6-(methoxy)-1,5-naphthyridin-4-yl]ethyl}-4-(hydroxymethyl)-4-piperidinyl]-3-oxo-3,4-dihydro-2H-pyrido[3,2-b][1,4]thiazine-6-carboxamide hydrochloride]	≤ 2 µg/mL	
COc1ccc2ncc(F)c(CCN3CCC(NC(=O)c4ccc5c(n4)NC(=O)CO5)CC3)c2c1.Cl [Example 94, N-(1-{2-[3-fluoro-6-(methoxy)-4-quinolinyl]ethyl}-4-piperidinyl)-3-oxo-3,4-dihydro-2H-pyrido[3,2-b][1,4]oxazine-6-carboxamide hydrochloride]	≤ 2 µg/mL	
COc1ccc2ncc(F)c(CCN3CCC(NC(=O)c4ccc5c(n4)NC(=O)CS5)CC3)c2c1.Cl [Example 95, N-(1-{2-[3-fluoro-6-(methoxy)-4-quinolinyl]ethyl}-4-piperidinyl)3-oxo-3,4-dihydro-2H-pyrido[3,2-b][1,4]thiazine-6-carboxamide hydrochloride]	≤ 2 µg/mL	
